Measurements from patent US7709539B2, “Therapeutic use of resveratrol for hyperglycemia” (Chang Gung University, priority 2004, dated 2010).

Columns and labels:
Format in all cases: in vivo, rat
[1] = test system: normal SD rats; test: Hypoglycemic effect in normal SD rats (blood sugar); conditions: for reduction of blood sugar: normal SD rats, 90 min after drug feeding
Experimental: Eight week-old Sprague Dawley (SD) rats (body weight from 200 gm to 250 gm) were maintained in the Animal Center of the Chang (Jung Memorial Hospital, under an ambient temperature of 25±1° C. and a light-dark period of 12 hrs. Animals were fed with normal chow and water. Resveratrol was first dissolved in DMS0 and diluted to 0.05 mg, 0.1 mg and 0.5 mg per ml wit normal saline. Animals were fed with desired amounts of drug solutions though tubing from the mouth into the stomach. Normal, IDDM, and NIDDM SD rats were fasted for 8 hrs and anesthetized by pentobarbital (30 mg/kg, ip). Animals were fed with different dosages of resveratrol (0.05 mg, 0.1 mg, or 0.5 mg per kg body weight), and blood samples were then collected from femoral vein at the time points 0, 60, 90, and 120 min. Ten μl plasma was mixed with 1 ml glucose kit reagent and incubated at 37° C. for 10 min. The blood sugar level was determined as described. […]. Data were expressed as mean±standard error (S.E.). Statistical analysis was performed using ANOVA (analysis of variance) followed by Dunnett test, and the significant difference was set at P<0.05. Male SD rats were fed with resveratrol at 0.05 mg, 0.1 mg, or 0.5 mg per kg body weight and plasma glucose level was measured at 90 min after drug feeding.

[2] = test system: IDDM SD rats; test: Antihyperglycemic effect in IDDM SD rats (STZ-induced); conditions: 90 min after drug feeding
Experimental: Resveratrol was first dissolved in DMS0 and diluted to 0.05 mg, 0.1 mg and 0.5 mg per ml wit normal saline. Animals were fed with desired amounts of drug solutions though tubing from the mouth into the stomach. Male rats were fasted for […] and anesthetized by intraperitoneal injection of pentobarbital at 30 mg/kg body weight. Animals were then injected with freshly prepared streptozotocin (STZ) solution at 65 mg/kg body weight intravenously. Three days later, blood sugar was measured. Animals with blood sugar levels above 400 mg/dl and symptoms of polyphagia, polyuria and polydipsia are classified as being induced to IDDM. Normal, IDDM, and NIDDM SD rats were fasted for 8 hrs and anesthetized by pentobarbital (30 mg/kg, ip). Animals were fed with different dosages of resveratrol (0.05 mg, 0.1 mg, or 0.5 mg per kg body weight), and blood samples were then collected from femoral vein at the time points 0, 60, 90, and 120 min. Ten μl plasma was mixed with 1 ml glucose kit reagent and incubated at 37° C. for 10 min. The blood sugar level was determined as described. Data were expressed as mean±standard error (S.E.). […] IDDM SD rats were fed with resveratrol at 0.05 mg, 0.1 mg, or 0.5 mg per kg body weight and the blood sugar was measured at 90 min after drug feeding.

[3] = test system: NIDDM SD rats; test: Antihyperglycemic effect in NIDDM SD rats (nicotinamide/STZ-induced); conditions: 0.1 mg/kg oral
Experimental: Resveratrol was first dissolved in DMS0 and diluted to 0.05 mg, 0.1 mg and 0.5 mg per ml wit normal saline. Animals were fed with desired amounts of drug solutions though tubing from the mouth into the stomach. B. NIDDM: Male SD rats were fasted for 48 hrs and anesthetized by intraperitoneal injection of pentobarbital at 30 mg/kg body weight. Animals were then injected with nicotinamide (100 mg/kg, ip) and streptozotocin (65 mg/kg, iv). Four weeks later, plasma glucose concentration was determined by the glucose oxidase method (Chemistry Analyzer; Autoanalyzer Quik-Lab., Ames, Spain). Animals with fasting blood sugar levels around 200 mg/dl and the development of an obese phenotype are classified as being induced to NIDDM. Normal, IDDM, and NIDDM SD rats were fasted for 8 hrs and anesthetized by pentobarbital (30 mg/kg, ip). Animals were fed with different dosages of resveratrol (0.05 mg, 0.1 mg, or 0.5 mg per kg body weight), and blood samples were then collected from femoral vein at the time points 0, 60, 90, and 120 min. Ten μl plasma was mixed with 1 ml glucose kit reagent and incubated at 37° C. for 10 min. The blood sugar level was determined as described. Data were expressed as mean±standard error (S.E.). […] NIDDM rats were fed with resveratrol and blood sugar was then measured as described.

[4] = test system: NIDDM insulin-resistant SD rats; test: Antihyperglycemic effect in NIDDM insulin-resistant SD rats (insulin-induced)
Experimental: Resveratrol was first dissolved in DMS0 and diluted to 0.05 mg, 0.1 mg and 0.5 mg per ml wit normal saline. Animals were fed with desired amounts of drug solutions though tubing from the mouth into the stomach. A. Insulin Resistance: Male SD rats were intraperitoneally injected with insulin (Monotard®HM; Novo Nordisk, Bagsvaerd, Denmark, 0.5 IU/kg, tid) for 2 weeks. The development of insulin resistance is confirmed by a tolbutamide test (11). Normal, IDDM, and NIDDM SD rats were fasted for 8 hrs and anesthetized by pentobarbital (30 mg/kg, ip). Animals were fed with different dosages of resveratrol (0.05 mg, 0.1 mg, or 0.5 mg per kg body weight), and blood samples were then collected from femoral vein at the time points 0, 60, 90, and 120 min. Ten μl plasma was mixed with 1 ml glucose kit reagent and incubated at 37° C. for 10 min. The blood sugar level was determined as described. […]. Data were expressed as mean±standard error (S.E.). Statistical analysis was performed using ANOVA (analysis of variance) followed by Dunnett test, and the significant difference was set at P<0.05. NIDDM rats were fed with resveratrol and blood sugar was then measured as described.

[5] = test system: SD rats injected with insulin; test: Development of insulin resistance and body weight increase in insulin-injected SD rats
Experimental: A. Insulin Resistance: Male SD rats were intraperitoneally injected with insulin (Monotard®HM; Novo Nordisk, Bagsvaerd, Denmark, 0.5 IU/kg, tid) for 2 weeks. The development of insulin resistance is confirmed by a tolbutamide test (11). Male SD rats were intraperitoneally injected with insulin at 0.5 IU/kg, tid with or without resveratrol feeding (0.5 mg/kg BW, bid) Animals without resveratrol feeding started to develop insulin resistance on day 16.5±1.5. In contrast, development of insulin resistance in the resveratrol-fed animals was delayed till 23.5±1.5 days. In addition, resveratrol reduced the body weight increase by 6% compared with the untreated insulin-resistant animals (FIG. 6)

## Oc1ccc(C=Cc2cc(O)cc(O)c2)cc1 [resveratrol]
[1]; 0.1 mg/kg oral
  reduction of blood sugar: 25.72±4.03%
[1]; 0.5 mg/kg oral
  reduction of blood sugar: 35.53±2.0%
[1]; normal SD rats, 0.05, 0.1, 0.5 mg/kg oral, 90 min
  blood sugar reduction, dose dependence: dose-dependent manner
[2]; 0.1 mg/kg oral
  reduction of blood sugar: 21.00±5.84%
[2]; 0.5 mg/kg oral
  reduction of blood sugar: 23.00±1.89%
[3]
  reduction of blood sugar: 28.3±1.67%
[4]; NIDDM insulin-resistant SD rats, 0.5 mg/kg oral, 90 min after drug feeding
  reduction of blood sugar: 32.1±1.62%
[4]; NIDDM insulin-resistant rats, oral
  hypoglycemic effect, dose dependence: dose-dependent hypoglycemic effect
[5]; insulin 0.5 IU/kg ip tid with resveratrol feeding 0.5 mg/kg BW bid, without resveratrol day 16.5±1.5
  time to development of insulin resistance: 23.5 ± 1.5 days
[5]; insulin-resistant SD rats, resveratrol 0.5 mg/kg BW bid
  reduction of body weight increase compared with untreated insulin-resistant animals: 6%
